{"source": "ChEMBL document CHEMBL1201862", "about": "“PubChem BioAssay data set” (2004)", "assay_in_all_cases": "inhibition of tumour cell growth, NCI panel, 48 h", "key": {"LXFL 529": {"system": "LXFL 529"}, "OVCAR-5": {"system": "OVCAR-5"}, "TK-10": {"system": "TK-10"}, "SNB-75": {"system": "SNB-75"}, "SW-620": {"system": "SW-620"}, "HL-60": {"system": "HL-60"}, "SNB-78": {"system": "SNB-78"}, "SR": {"system": "SR"}, "RPMI-8226": {"system": "RPMI-8226"}, "HCT-116": {"system": "HCT-116"}, "HT-29": {"system": "HT-29"}, "M19-MEL": {"system": "M19-MEL"}, "HCC 2998": {"system": "HCC 2998"}, "UACC-62": {"system": "UACC-62"}, "SF-539": {"system": "SF-539"}, "COLO 205": {"system": "COLO 205"}, "K562": {"system": "K562"}, "SF-268": {"system": "SF-268"}, "786-0": {"system": "786-0"}, "MDA-N": {"system": "MDA-N"}}, "note": "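A five-concentration, 48-hour dose response in 96-well plates underlies each endpoint, interpolated linearly between surrounding concentrations. GI50 marks 50% less growth.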 Activity calls are given as the source filed them. Cut-off read from the data, not from the text of the source: active = GI50 up to about 1.1 µM and inactive = higher.", "data": [{"smiles": "C=C[C@]1(C)CCC2=C(CCC3C2(C)CCC[C@]3(C)CO)C1", "note": "(some centres not stated)", "values": [{"measurement": "GI50", "setting": "LXFL 529", "result": "56.1 µM (inactive)"}, {"measurement": "GI50", "setting": "OVCAR-5", "result": "> 100 µM (inactive)"}, {"measurement": "GI50", "setting": "TK-10", "result": "> 100 µM (inactive)"}, {"measurement": "GI50", "setting": "SNB-75", "result": "61.5 µM (inactive)"}, {"measurement": "GI50", "setting": "SW-620", "result": "63.8 µM (inactive)"}, {"measurement": "GI50", "setting": "HL-60", "result": "27.9 µM (inactive)"}, {"measurement": "GI50", "setting": "SNB-78", "result": "79.4 µM (inactive)"}, {"measurement": "GI50", "setting": "SR", "result": "26.8 µM (inactive)"}, {"measurement": "GI50", "setting": "RPMI-8226", "result": "27.2 µM (inactive)"}, {"measurement": "GI50", "setting": "HCT-116", "result": "35.6 µM (inactive)"}, {"measurement": "GI50", "setting": "HT-29", "result": "24.1 µM (inactive)"}, {"measurement": "GI50", "setting": "M19-MEL", "result": "43.5 µM (inactive)"}, {"measurement": "GI50", "setting": "HCC 2998", "result": "43.7 µM (inactive)"}, {"measurement": "GI50", "setting": "UACC-62", "result": "76.9 µM (inactive)"}, {"measurement": "GI50", "setting": "SF-539", "result": "> 100 µM (inactive)"}, {"measurement": "GI50", "setting": "COLO 205", "result": "38.4 µM (inactive)"}, {"measurement": "GI50", "setting": "K562", "result": "34.8 µM (inactive)"}, {"measurement": "GI50", "setting": "SF-268", "result": "33.4 µM (inactive)"}, {"measurement": "GI50", "setting": "786-0", "result": "59.8 µM (inactive)"}]}, {"smiles": "N#CCc1ccc(C(C#N)/C(CCCC(=O)Nc2cccc([N+](=O)[O-])c2)=N\\NC(=O)NN)cc1", "note": "(configuration not stated)", "values": [{"measurement": "GI50", "setting": "LXFL 529", "result": "> 100 µM (inactive)"}, {"measurement": "GI50", "setting": "OVCAR-5", "result": "> 100 µM (inactive)"}, {"measurement": "GI50", "setting": "TK-10", "result": "> 100 µM (inactive)"}, {"measurement": "GI50", "setting": "SNB-75", "result": "> 100 µM (inactive)"}, {"measurement": "GI50", "setting": "SW-620", "result": "> 100 µM (inactive)"}, {"measurement": "GI50", "setting": "HL-60", "result": "> 100 µM (inactive)"}, {"measurement": "GI50", "setting": "SNB-78", "result": "> 100 µM (inactive)"}, {"measurement": "GI50", "setting": "SR", "result": "> 100 µM (inactive)"}, {"measurement": "GI50", "setting": "RPMI-8226", "result": "> 100 µM (inactive)"}, {"measurement": "GI50", "setting": "HCT-116", "result": "> 100 µM (inactive)"}, {"measurement": "GI50", "setting": "HT-29", "result": "> 100 µM (inactive)"}, {"measurement": "GI50", "setting": "M19-MEL", "result": "> 100 µM (inactive)"}, {"measurement": "GI50", "setting": "HCC 2998", "result": "> 100 µM (inactive)"}, {"measurement": "GI50", "setting": "UACC-62", "result": "> 100 µM (inactive)"}, {"measurement": "GI50", "setting": "SF-539", "result": "> 100 µM (inactive)"}, {"measurement": "GI50", "setting": "COLO 205", "result": "> 100 µM (inactive)"}, {"measurement": "GI50", "setting": "K562", "result": "> 100 µM (inactive)"}, {"measurement": "GI50", "setting": "SF-268", "result": "> 100 µM (inactive)"}, {"measurement": "GI50", "setting": "786-0", "result": "> 100 µM (inactive)"}]}, {"smiles": "COCC(C#N)NC1CC(OC2CC(O)(C(=O)CO)Cc3c(O)c4c(c(O)c32)C(=O)c2c(OC)cccc2C4=O)OC(C)C1O", "note": "(configuration not stated)", "values": [{"measurement": "GI50", "setting": "LXFL 529", "result": "0.083 µM (active)"}, {"measurement": "GI50", "setting": "OVCAR-5", "result": "0.247 µM (active)"}, {"measurement": "GI50", "setting": "TK-10", "result": "0.19 µM (active)"}, {"measurement": "GI50", "setting": "SNB-75", "result": "0.0564 µM (active)"}, {"measurement": "GI50", "setting": "SW-620", "result": "0.033 µM (active)"}, {"measurement": "GI50", "setting": "HL-60", "result": "0.0193 µM (active)"}, {"measurement": "GI50", "setting": "SNB-78", "result": "0.235 µM (active)"}, {"measurement": "GI50", "setting": "SR", "result": "< 0.0111 µM (active)"}, {"measurement": "GI50", "setting": "RPMI-8226", "result": "0.0282 µM (active)"}, {"measurement": "GI50", "setting": "HCT-116", "result": "0.0385 µM (active)"}, {"measurement": "GI50", "setting": "HT-29", "result": "0.151 µM (active)"}, {"measurement": "GI50", "setting": "M19-MEL", "result": "0.0528 µM (active)"}, {"measurement": "GI50", "setting": "HCC 2998", "result": "0.145 µM (active)"}, {"measurement": "GI50", "setting": "UACC-62", "result": "0.0574 µM (active)"}, {"measurement": "GI50", "setting": "SF-539", "result": "0.0415 µM (active)"}, {"measurement": "GI50", "setting": "COLO 205", "result": "0.0483 µM (active)"}, {"measurement": "GI50", "setting": "K562", "result": "0.0415 µM (active)"}, {"measurement": "GI50", "setting": "SF-268", "result": "0.0419 µM (active)"}, {"measurement": "GI50", "setting": "MDA-N", "result": "0.0975 µM (active)"}, {"measurement": "GI50", "setting": "786-0", "result": "0.0434 µM (active)"}]}, {"smiles": "O=C(/C=C\\c1ccccc1O)c1ccc(O)cc1O", "values": [{"measurement": "GI50", "setting": "LXFL 529", "result": "> 100 µM (inactive)"}, {"measurement": "GI50", "setting": "OVCAR-5", "result": "> 100 µM (inactive)"}, {"measurement": "GI50", "setting": "TK-10", "result": "> 100 µM (inactive)"}, {"measurement": "GI50", "setting": "SNB-75", "result": "0.0128 µM (active)"}, {"measurement": "GI50", "setting": "SW-620", "result": "10.8 µM (inactive)"}, {"measurement": "GI50", "setting": "HL-60", "result": "81.8 µM (inactive)"}, {"measurement": "GI50", "setting": "SNB-78", "result": "> 100 µM (inactive)"}, {"measurement": "GI50", "setting": "SR", "result": "> 100 µM (inactive)"}, {"measurement": "GI50", "setting": "RPMI-8226", "result": "62.8 µM (inactive)"}, {"measurement": "GI50", "setting": "HCT-116", "result": "> 100 µM (inactive)"}, {"measurement": "GI50", "setting": "HT-29", "result": "> 100 µM (inactive)"}, {"measurement": "GI50", "setting": "M19-MEL", "result": "> 100 µM (inactive)"}, {"measurement": "GI50", "setting": "HCC 2998", "result": "> 100 µM (inactive)"}, {"measurement": "GI50", "setting": "UACC-62", "result": "> 100 µM (inactive)"}, {"measurement": "GI50", "setting": "SF-539", "result": "> 100 µM (inactive)"}, {"measurement": "GI50", "setting": "COLO 205", "result": "28.6 µM (inactive)"}, {"measurement": "GI50", "setting": "K562", "result": "> 100 µM (inactive)"}, {"measurement": "GI50", "setting": "SF-268", "result": "> 100 µM (inactive)"}, {"measurement": "GI50", "setting": "786-0", "result": "> 100 µM (inactive)"}]}]}
